Results on eight molecules are retold here after patent US20150313913A1, “POSITIVE ALLOSTERIC MODULATORS OF THE GABA-A RECEPTOR IN THE TREATMENT OF AUTISM” (UNIVERSITY OF WASHINGTON THROUGH ITS CENTER FOR …, priority 2013, published 2015).

Entries after “also recorded” stand apart in the source; their conditions may differ. Where two headings read alike, the source gives them in different places.

What is called half-life is how long it takes for the measured level to halve.

The conditions of series [1]: cited from earlier work.
A further series relates to GABA-A receptor. The following applies: cited from earlier work; for Effect at GABA-A receptor: Table 1, exemplary benzodiazepines.
For series [2] the following is noted: in vivo; cited from earlier work.
The test system of series [3] is C57BL/6J mice. As to the kind of experiment: Elevated plus maze test. The following applies: 0.2 mg/kg. Type of series: in vivo. Here is the method: The test was performed as previously described (Han et al., 2012). The maze used in this study has two closed arms (5.1×30 cm) surrounded by 20-cm high non-transparent walls and two open arms (5.1×30 cm). During the 10 min of trial, times spent in closed, center, and open arms, and total distance traveled during the trial were measured by the video-tracking software (EthoVision XT 8.5, Noldus Technology).

Series [4] has as its system C57BL/6J mice. As to the kind of experiment: Three-chamber social interaction test. Type of series: in vivo. The text has this: The mouse was allowed to freely explore each chamber.
Series [5] relates to C57BL/6J mice. The series can be described thus: Open field test. It counts as in vivo. Conditions: 0.2 mg/kg. Here is the method:
(§1) Open field test was performed as previously described (Han et al., 2012). 50×50 cm square open field arena with non-transparent white Plexiglas was used in this study. During the 10 min of trial, total distance moved, circling behavior (a complete 360-degree turn of nose angle with respect to the body center) and time in center (20×20 cm imaginary square) were measured by the video-tracking software (EthoVision XT 8.5, Noldus Technology).

Series [6] relates to BTBR mice. The series can be described thus: Three-chamber social interaction test. The following applies: for social interaction (time with stranger mouse, close interaction), dose series: single i.p. injection 30 min before test, low/increasing doses. Here is the method: In the three-chamber test, a test mouse is placed in the center chamber, and the preference of the test mouse for interaction with an inanimate object (a small empty cage) in the left chamber vs. a stranger mouse in an identical cage in the right chamber using a digital camera and quantitative video-tracking analysis.
(§2) The test was performed as described previously (Han et al., 2012) with minor modifications. The threechamber apparatus is a non-transparent Plexiglas box (30×60 cm) with two transparent partitions that make left, center, and right chambers (30×20 cm). In the first 10-min session, a test mouse was placed in the center of the empty three-chamber unit to habituate the test mouse. The mouse was allowed to freely explore each chamber. In the second 10-min session, an age- and gender-matched same strain mouse that had never been exposed to the test mouse, was placed in one of the two wire cages. The empty wire cage as an inanimate object cue was placed on the other side. Then, the test mouse was placed again in the center, and allowed to freely explore the chamber for 10 min. Time spent in each chamber, and time spent within a 5 cm radius proximal to each wire cage, as a close interaction were measured by the videotracking software (EthoVision XT 8.5, Noldus Technology). All data shown are means±s.e.m. and analyzed using two-way ANOVA with Bonferroni's post hoc analysis and one-way ANOVA with Tukey's post hoc analysis.
(§3) L-838,417, and DMCM (Sigma), dissolved in 100% DMSO (sterile, Sigma) was diluted in PBS (the final concentration of DMSO was ranged from 0.005% to 0.1%). Drugs were administered by an intraperitoneal injection in a volume of […] 30 min before the behavioral tests.

The subject of series [7] is BTBR mice. The series can be described thus: Context-dependent fear conditioning test. Conditions: 0.05 mg/kg. It counts as in vivo. An excerpt: The contextual fear-conditioning chamber was a square arena (25×25 cm) with clear PLEXIGLAS™ walls and a metal grid floor connected to a circuit board that delivered shocks to the metal grid (COULBOURN INSTRUMENTS™). An analog camera was attached on top of the chamber. The camera and the circuit board were connected to a personal computer, and its software (FREEZE FRAME™ 2.0, ACTIMETRICS™) controlled the circuit and recorded the data. The chamber was cleaned with 70% ethanol and wiped with paper towels before each session. In the habituation session, a test mouse was placed in the chamber and allowed to explore for 2 min^66-69. Immediately after habituation, the test mouse received a single mild foot shock (2 s, 0.5 mA). After staying in the chamber one more min, the mouse was removed from the chamber. For the 30-min short-term memory test, the mouse was returned to the context 30 min after the end of the training session. For 24-hr long-term memory test, the mouse was returned to the context 24 hr after the training session. The movement of mice was also recorded by a USB webcam (LIFECAM™ HD-6000, MICROSOFT™) and PC-based video capture software (WINAVI™ Video Capture, ZJ MEDIA DIGITAL TECHNOLOGY™) for 2 min. The recorded video file was further analyzed by off-line video tracking software (ETHOVISION™ XT 7.0, NOLDUS TECHNOLOGY™). The freezing scores were calculated by dividing the test session into 1 min bouts and averaging together all 2 min for each animal. All data shown.
Freezing behavior is defined as the period during which the velocity of the test mouse is less than 1.75 cm/s, and non-freezing behavior is defined as the period during which the velocity of the mouse is greater than 2 cm/s.

In series [8] the test system is mouse genetic models of human Dravet syndrome and idiopathic autism. The series can be described thus: Summary: low-dose treatment of mouse models of autism. It counts as in vivo, mice. The following applies: low doses that do not induce sedative or anxiolytic effects. An excerpt: The present disclosure describes methods effective in the rescue or amelioration of autism-like behavior, cognitive deficit, and context-dependent spatial memory.
In particular embodiments, these methods comprise the administration of low doses of a benzodiazepine to a human or other mammalian subject in order to rescue autism-like behavior, cognitive deficit, and context-dependent spatial memory. […] At such low doses, the administration of benzodiazepines, such as CLZ, to mammalian subjects will result in improvement of autism-like behavior, cognitive deficit, and context-dependent spatial learning and memory with much lower levels of sedation compared to mammalian subjects who receive typical higher doses of CLZ or other benzodiazepines that are used for treatment of anxiety, insomnia, or seizure.
The present disclosure is also directed to methods of rescuing or ameliorating indicia of Autism Spectrum disorders, autism-like behavior, cognitive deficit, and context-dependent spatial learning and memory in Dravet syndrome or idiopathic autism with α-2,3-specific GABA-A receptor positive allosteric modifiers. Such α-2,3-subunit selective GABA-A receptor positive allosteric modifiers include L838,417.
Therapeutic approaches to treat autistic traits in animal studies or in clinical trials have primarily focused on reducing excitatory neurotransmission in glutamatergic synapses to rebalance E/I ratio in autistic brain (Michalon et al., 2012; Yang et al., 2012). However, autistic-like behaviors in ASD mouse models are only partially reversed by drugs that inhibit excitatory neurotransmission, and these drugs also have unwanted side effects on wild-type mice (Henderson et al., 2012; Michalon et al., 2012; Yang et al., 2012). To overcome these drawbacks, the inventors focused on the opposing side, the GABAergic inhibitory transmission in autistic brain. Their results highlight the potential for therapy of autistic-like behaviors and cognitive deficit in ASD by low-dose treatment with subunit-selective benzodiazepines and other positive allosteric modulators of GABA-A receptors. […] It is possible that the biphasic dose-response relationship of the positive allosteric modulators reflects their actions on receptors containing α2,3 subunits at low doses and on receptors containing α1 subunits at higher doses.

In the next series the test system is Scn1a+/− mice. As to the kind of experiment: Three-chamber social preference test. Type of series: in vivo. The following applies: low doses, narrow dose range (FIGS. 41N, 41O).
Source text: The mouse was allowed to freely explore each chamber. […] The recorded video file was further analyzed by off-line video tracking software (ETHOVISION™ XT 7.0). […] All data shown are means±s.e.m. and analyzed using two-way ANOVA with Bonferroni's post hoc analysis and one-way ANOVA with Tukey's post hoc analysis.
Oral administration is specifically contemplated for the methods described herein, and is well known for both benzodiazepines and non-BDZ GABA-A enhancers as described herein.
as §2, §3

Series [9] has as its system BTBR mice. The series can be described thus: Open field test. Type of series: in vivo. Conditions: clobazam 0.05 mg/kg. Here is the method:
as §1

For the molecule `Cc1nnc2n1-c1ccc(Cl)cc1C(c1ccccc1Cl)=NC2` [Triazolam], the “Dose in humans for anti-anxiety, anti-convulsive, or sedative effects: equivalent dose to 10 mg diazepam” value (shortened to “Dose in humans for anti-anxiety”) in series [1] (Table 1, values marked *) is 0.25 mg. In addition, the “Effect at GABA-A receptor” value in the series on GABA-A receptor was “Agonist”. For the same molecule, in [2], the half-life is 2 to 3 h.
`CCc1c(C(=O)OC)ncc2[nH]c3cc(OC)c(OC)cc3c12` [DMCM]: in the series on C57BL/6J mice [3], the “anxiety levels (time in the open arms)” value is listed as “not altered” and the “number of entries in the open arms” value is “unchanged”. Further, the “normal social interaction behavior” value in the series with C57BL/6J mice [4] (0.2 mg/kg single injection 30 min prior) is “impaired; also recorded: substantially reduced”. Moreover, in the series on C57BL/6J mice [5], the “general locomotor behavior (distance moved)” value is “not altered” and the “time spent in center” value was “unaltered”.
For `Cc1ccc(-c2nc3ccc(C)cn3c2CC(=O)N(C)C)cc1` [zolpidem], the “social behavior, dose series” value in the series with C57BL/6J mice [4] (L-838,417 / zolpidem (FIGS. 45I, 45J)) is recorded as “dose-dependently impaired”. In addition, in the series with C57BL/6J mice [4] (high dose), the “social behavior at high dose” value is on record as “impaired”. Moreover, the “social behavior (close interaction)” value in the series on BTBR mice [6] (0.5 mg/kg) is listed as “made social behavior worse”. Also, the “sedation / total distance moved during the three-chamber test” value in the series with BTBR mice [6] (dose range up to 0.5 mg/kg (clonazepam: test doses)) is recorded as “dose-dependently decreased”. Besides, the “total movement during the three-chamber test at high dose” value in the series on BTBR mice [6] (high doses, zolpidem 0.5 mg/kg) is “significantly decreased”. In the series with BTBR mice [6] (higher doses), the “effect on social interaction at doses above the maximally effective dose” value was “aggravated their social interaction deficit at high doses”. Further, the “social interaction (time with stranger mouse, close interaction), dose series” value (“social interaction … dose series” for short) with BTBR mice [6] was “failed to show beneficial effects”. Also, the “social interaction … dose series” value in the series with BTBR mice [6] (listed as Zolpidem) is listed as “failed to rescue social deficit”. Moreover, in the series with BTBR mice [7], the “long-term (24 h) memory” value is on record as “not long-term memory” and the “short-term (30 min) memory” value was “enhanced short-term memory”. Besides, the “autistic-like behaviors and cognitive deficit in BTBR mice (summary)” value in series [8] is recorded as “opposite effects”. Further, the “social interactions in three-chamber test” value in the series on Scn1a+/− mice is “not effective”.
Consider `CN1C(=O)CC(=O)N(c2ccccc2)c2cc(Cl)ccc21` [Clobazam], for which the “Dose in humans for anti-anxiety” value in [1] (Table 1, values marked *) was 20 mg. The “social interaction of control mice” value in the series with C57BL/6J mice [4] (clobazam, FIG. 9) was “no effect”. Further, in the series with BTBR mice [6] (0.05 mg/kg (low dose) 30 min before test), the social interaction deficit result was “ameliorated social interaction deficits”. Further, in the series with BTBR mice [6] (FIG. 9), the “time in the chamber with the stranger mouse” value is “increased” and the “time of interaction with the stranger mouse” value is on record as “increased”. Besides, the “social interaction … dose series” value with BTBR mice [6] is “increases”. Besides, in series [8], the “autistic-like behaviors and cognitive deficit in BTBR mice (summary)” value is reported as “improved”. In addition, the “Effect at GABA-A receptor” value in the series on GABA-A receptor was “Agonist”. Also, in the series on BTBR mice [9], the “anxiolytic effect (time spent in center)” value is listed as “without sedative (FIG. 41C) or anxiolytic effects” and the “sedative effect (total distance moved)” value is reported as “without sedative”.
As for `CC(C)(C)OC(=O)c1ncn2c1[C@@H]1CCCN1C(=O)c1c(Br)cccc1-2` [Bretazenil], in series [1] (Table 1, values marked *), the “Dose in humans for anti-anxiety” value is 0.5 mg. The “Effect at GABA-A receptor” value in the series with GABA-A receptor is recorded as “Partial Agonist High potency”.
As for `O=C1CN=C(c2ccccc2)c2cc(Cl)ccc2N1CC1CC1` [Prazepam], in series [1] (Table 1, values marked *), the “Dose in humans for anti-anxiety” value is 20 mg. For the same molecule, the “Effect at GABA-A receptor” value in the series on GABA-A receptor is recorded as “Agonist (Prodrug)”.
For the molecule `CN1CCN(C(=O)OC2c3nccnc3C(=O)N2c2ccc(Cl)cn2)CC1` (centres unmarked) [Zopiclone], in [1] (Table 4, values marked *), the “Dose in humans for anti-anxiety” value was 15 mg. The “Effect at GABA receptor” value in the series with GABA-A receptor (Table 4, exemplary non-BDZ GABA-A enhancers) was “Full agonist”.
Take `C#CCN1C(=O)CN=C(c2ccccc2)c2cc(Cl)ccc21` [Pinazepam]: the “Dose in humans for anti-anxiety” value in series [1] (Table 1, values marked *) is 20 mg. Moreover, the “Effect at GABA-A receptor” value in the series with GABA-A receptor was “Agonist”.
